Results taken from US20090239827A1, “COMPOUNDS HAVING LIPID LOWERING PROPERTIES” (priority 2005, published 2009).
Where “and” joins values, the source holds several entries; their conditions need not be identical. Equal values may be shown once.

Key:
APOE deficient mice [1] = assay: Example 2: plasma lipid levels in APOE deficient mice, compound in feed, induction and challenge phases; format: in vivo, mouse
Experimental: (§1) This example evaluated the effects of a tocopheryl phosphate mixture (TPm) (mono-tocopheryl phosphate and di-tocopheryl phosphate) on the development of atherosclerotic lesions in male APOE deficient mice.
(§2) Twenty-eight mice were divided into 4 groups: 2 control groups, a tocopherol acetate (TA) group (150 mg TA/kg feed) and a TPm group (200 mg TPm/kg feed containing 7% fat).
‘Induction phase’—The induction phase consisted of the first 16 weeks of the treatment period.
‘Challenge phase’—This phase consisted of the final 8 weeks of the treatment period.
The 4 groups of animals were placed on the diet regimes outlined in the table below:
Of the two control animal groups only one was placed on the SF04-055, HFHC diet, while the other control group was maintained on the SF05-040 mouse pellet diet (only 7% fat) for the entire treatment period 24 week treatment period (C24). […] TA treated mice were fed pellets with 150 mg TA/kg feed and TPm treated mice were fed the pellets with 200 mg TPm/kg feed. […] The 26 mg/kg TPm dose was calculated to be the tocopherol equivalent to the TA dose.

APOE deficient mice [2] = assay: Example 2: aortic atheromatous lesion area by Oil red O staining in APOE deficient mice; format: in vivo, mouse; conditions: end of the 24 week treatment period
Experimental: as §1, §2
‘Induction phase’—The induction phase consisted of the first 16 weeks of the treatment period. During this period the animals were fed a mouse pellet diet low in vitamin E (containing less than 20 mg vitamin E per kg food, with a 7% total fat; modified version of the standard AIN93G rodent diet (SF05-040, Specialty feeds, Glen Forrest, Wash. Australia). Control animals were fed the diet alone, while TA-feed contained 150 mg TA/kg feed and TPm-feed contained 200 mg TPm/kg feed. These feeds delivered on average doses of 21 and 26 mg/kg body weight, respectively. The 26 mg/kg TPm dose was calculated to be the tocopherol equivalence of the TA dose. […]
Of the two control animal groups only one was placed on the SF04-055, HFHC diet, while the other control group was maintained on the SF05-040 mouse pellet diet (only 7% fat) for the entire treatment period 24 week treatment period (C24). […] The 26 mg/kg TPm dose was calculated to be the tocopherol equivalent to the TA dose. […]

[3] = Challenge phase (HFHC diet), week 24, TA 150 mg/kg feed, TPm 200 mg/kg feed
[4] = Induction phase, week 16, TA 150 mg/kg feed, TPm 200 mg/kg feed

## CC(=O)Oc1c(C)c(C)c2c(c1C)CCC(C)(CCC[C@H](C)CCC[C@H](C)CCCC(C)C)O2 (stereo partly drawn) [TA, Tocopherol Acetate]
APOE deficient mice [1]; Baseline, week 0
  LDL-C level (mean ± SD): 8.85 ± 1.66 mmol/L
  total cholesterol level (mean ± SD): 12.75 ± 1.41 mmol/L
  triglyceride level (mean ± SD): 1.75 ± 0.25 mmol/L
APOE deficient mice [1]; [3]
  LDL-C level (mean ± SD): 18.98 ± 2.29 mmol/L
  total cholesterol level (mean ± SD): 47.13 ± 4.44 mmol/L
  triglyceride level (mean ± SD): 2.23 ± 0.29 mmol/L
APOE deficient mice [1]; [4]
  LDL-C level (mean ± SD): 6.51 ± 0.71 mmol/L
  total cholesterol level (mean ± SD): 14.47 ± 1.32 mmol/L
  triglyceride level (mean ± SD): 1.30 ± 0.22 mmol/L
APOE deficient mice [1]; after the challenge phase (week 24)
  reduction in plasma lipid levels: no significant reduction
APOE deficient mice [2]
  reduction in aortic lesion area / lesion formation compared to control mice on the same diet regime: 12%
APOE deficient mice [2]; HFHC diet final 8 weeks
  Atheromatous lesion area, % Lesion coverage (mean ± SD): 9.4% and 9.4 ± 1.1%
